Source: patent US10219513B2, “Safening 4-amino-3-chloro-6-(4-chloro-2-fluoro-3-methoxyphenyl)-5-fluoropyridine-2-carboxylic acid compositions in Brassica species and methods of use thereof” (Dow AgroSciences LLC, priority 2016, dated 2019)

Legend:
[1] = test system: Brassica alboglabra (kale/Chinese kale, BRSAG); assay: Greenhouse postemergence application, visual injury after 20-22 d, BRSAG; conditions: for % Visual Injury Obs / Obs % visual injury: BRSAG
Summary of the method: (§1)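 Florpyrauxifen-benzyl alone or mixed with clopyralid, quinclorac or safeners, diluted in 1.25% v/v Agri-dex, was track-sprayed at 187 L/ha onto 2–3-true-leaf plants. Plants were kept in a greenhouse at ~23/22 °C, 14 h photoperiod, sub-irrigated, and injury was scored visually 0–100% vs. solvent-blank controls; Colby expected values were calculated.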

[2] = test system: Brassica juncea (Juncea canola or brown mustard, BRSJU); assay: Greenhouse postemergence application, visual injury after 20-22 d, BRSJU; conditions: for % Visual Injury Obs / Obs % visual injury: BRSJU
Summary of the method: as §1

[3] = test system: Brassica napus (all varieties of canola and oilseed rape, BRSNN); assay: Greenhouse postemergence application, visual injury after 20-22 d, BRSNN; conditions: for % Visual Injury Obs / Obs % visual injury: BRSNN
Summary of the method: as §1

[4] = test system: Brassica napus (Nexera canola, BRSNN-NEX); assay: Greenhouse postemergence application, visual injury after 20-22 d, BRSNN-NEX; conditions: for % Visual Injury Obs / Obs % visual injury: BRSNN-NEX
Summary of the method: as §1

[5] = test system: Brassica rapa (turnip or Polish canola, BRSRR); assay: Greenhouse postemergence application, visual injury after 20-22 d, BRSRR; conditions: for % Visual Injury Obs / Obs % visual injury: BRSRR
Summary of the method: as §1

[6] = postemergence application, greenhouse, application rate (g ai/ha) varies

O=C(O)c1c(Cl)ccc2cc(Cl)cnc12 [Quinclorac, 3,7-dichloro-8-quinolinecarboxylic acid]
0%: % Visual Injury Obs ([1]; 50 g ai/ha) | % Visual Injury Obs ([1]; 100 g ai/ha) | % Visual Injury Obs ([1]; 200 g ai/ha) | Obs % visual injury ([1]; partner alone 50 g ai/ha) | Obs % visual injury ([1]; partner alone 100 g ai/ha) | Obs % visual injury ([1]; partner alone 200 g ai/ha) | % Visual Injury BRSAG Obs [1, 6] | % Visual Injury BRSAG Obs ([1]; quinclorac 50 g ai/ha alone) | % Visual Injury BRSAG Obs ([1]; quinclorac 100 g ai/ha alone) | % Visual Injury BRSAG Obs ([1]; quinclorac 200 g ai/ha alone) | % Visual Injury Obs ([2]; 50 g ai/ha) | % Visual Injury Obs ([2]; 100 g ai/ha) | % Visual Injury Obs ([2]; 200 g ai/ha) | Obs % visual injury ([2]; partner alone 50 g ai/ha) | Obs % visual injury ([2]; partner alone 100 g ai/ha) | Obs % visual injury ([2]; partner alone 200 g ai/ha) | % Visual Injury BRSJU Obs [2, 6] | % Visual Injury BRSJU Obs ([2]; quinclorac 50 g ai/ha alone) | % Visual Injury BRSJU Obs ([2]; quinclorac 100 g ai/ha alone) | % Visual Injury BRSJU Obs ([2]; quinclorac 200 g ai/ha alone) | % Visual Injury Obs ([3]; 50 g ai/ha) | % Visual Injury Obs ([3]; 100 g ai/ha) | % Visual Injury Obs ([3]; 200 g ai/ha) | Obs % visual injury ([3]; partner alone 50 g ai/ha) | Obs % visual injury ([3]; partner alone 100 g ai/ha) | Obs % visual injury ([3]; partner alone 200 g ai/ha) | % Visual Injury BRSNN Obs [3, 6] | % Visual Injury BRSNN Obs ([3]; quinclorac 50 g ai/ha alone) | % Visual Injury BRSNN Obs ([3]; quinclorac 100 g ai/ha alone) | % Visual Injury BRSNN Obs ([3]; quinclorac 200 g ai/ha alone) | % Visual Injury Obs ([4]; 50 g ai/ha) | % Visual Injury Obs ([4]; 100 g ai/ha) | % Visual Injury Obs ([4]; 200 g ai/ha) | Obs % visual injury ([4]; partner alone 50 g ai/ha) | Obs % visual injury ([4]; partner alone 100 g ai/ha) | Obs % visual injury ([4]; partner alone 200 g ai/ha) | % Visual Injury BRSNN-NEX Obs [4, 6] | % Visual Injury BRSNN-NEX Obs ([4]; quinclorac 50 g ai/ha alone) | % Visual Injury BRSNN-NEX Obs ([4]; quinclorac 100 g ai/ha alone) | % Visual Injury BRSNN-NEX Obs ([4]; quinclorac 200 g ai/ha alone) | % Visual Injury Obs ([5]; 50 g ai/ha) | % Visual Injury Obs ([5]; 100 g ai/ha) | % Visual Injury Obs ([5]; 200 g ai/ha) | Obs % visual injury ([5]; partner alone 50 g ai/ha) | Obs % visual injury ([5]; partner alone 100 g ai/ha) | Obs % visual injury ([5]; partner alone 200 g ai/ha) | % Visual Injury BRSRR Obs [5, 6] | % Visual Injury BRSRR Obs ([5]; quinclorac 50 g ai/ha alone) | % Visual Injury BRSRR Obs ([5]; quinclorac 100 g ai/ha alone) | % Visual Injury BRSRR Obs ([5]; quinclorac 200 g ai/ha alone)
